According to patent publication US20250136606A1, “MODULATORS OF TRPML, THEIR COMPOSITIONS AND METHODS OF USE” (Caraway Therapeutics, Inc., priority 2021, published 2025):

Experiments:
Assay type in all cases: cell-based
Conditions in all cases: fluorescent calcium assay
[1] = biological target: TRPML1 (Homo sapiens, UniProt Q9GZU1); assay: Fluorescent TRPML1 assay (Fluo4-AM calcium fluorescence in doxycycline-induced HEK-293 Trex cells)
Outline: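 EC50 values come from non-linear regression of percent activity, normalized to on-plate positive and negative controls, with fluorescence read at 480 nm excitation and 540 nm emission. Fluo4-AM-loaded (1 µM) doxycycline-induced HEK-293 Trex cells expressing mutated human TRPML1 were exposed in 10 mM calcium Ringer's to 6 nM–20 µM compound, in triplicate.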

[2] = biological target: T1, TRPML2 (Homo sapiens, UniProt Q8IZK6); assay: Fluorescent TRPML2 assay (performed as for TRPML1, substituting the TRPML2 subtype)
T1 construct: expressed in transfected cells
T1 sequence (Q8IZK6 1-566): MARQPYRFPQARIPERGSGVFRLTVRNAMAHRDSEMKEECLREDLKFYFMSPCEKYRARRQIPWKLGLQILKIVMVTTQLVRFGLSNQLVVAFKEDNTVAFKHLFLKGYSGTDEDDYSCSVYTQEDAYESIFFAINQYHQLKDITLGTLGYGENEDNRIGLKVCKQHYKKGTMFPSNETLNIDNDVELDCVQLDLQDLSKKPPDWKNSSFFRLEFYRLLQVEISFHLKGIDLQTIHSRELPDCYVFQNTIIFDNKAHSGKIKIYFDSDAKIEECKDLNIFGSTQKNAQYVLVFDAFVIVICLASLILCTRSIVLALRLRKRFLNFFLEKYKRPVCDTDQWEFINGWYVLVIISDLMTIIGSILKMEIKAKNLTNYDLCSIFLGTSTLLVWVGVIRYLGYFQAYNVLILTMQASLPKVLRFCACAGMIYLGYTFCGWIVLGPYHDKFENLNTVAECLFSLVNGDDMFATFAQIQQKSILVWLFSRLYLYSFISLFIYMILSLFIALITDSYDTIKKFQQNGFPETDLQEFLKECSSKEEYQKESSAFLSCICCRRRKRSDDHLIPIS
Outline: (§1)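 HEK-293 Trex, dox-induced (0.5 ug/mL), mutated for surface expression. Fluo4-AM 1 micromolar load ~60 min, dark; buffer modified Ringer's, 10 mM Ca. Cpds 20 micromolar–6 nanomolar final, half-log, n=3. Read ex 480/em 540; % activity vs controls; EC50 nonlinear fit.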

[3] = biological target: T2, TRPML3 (Homo sapiens, UniProt Q8TDD5); assay: Fluorescent TRPML3 assay (performed as for TRPML1, substituting the TRPML3 subtype)
T2 construct: expressed in transfected cells
T2 sequence (Q8TDD5 1-553): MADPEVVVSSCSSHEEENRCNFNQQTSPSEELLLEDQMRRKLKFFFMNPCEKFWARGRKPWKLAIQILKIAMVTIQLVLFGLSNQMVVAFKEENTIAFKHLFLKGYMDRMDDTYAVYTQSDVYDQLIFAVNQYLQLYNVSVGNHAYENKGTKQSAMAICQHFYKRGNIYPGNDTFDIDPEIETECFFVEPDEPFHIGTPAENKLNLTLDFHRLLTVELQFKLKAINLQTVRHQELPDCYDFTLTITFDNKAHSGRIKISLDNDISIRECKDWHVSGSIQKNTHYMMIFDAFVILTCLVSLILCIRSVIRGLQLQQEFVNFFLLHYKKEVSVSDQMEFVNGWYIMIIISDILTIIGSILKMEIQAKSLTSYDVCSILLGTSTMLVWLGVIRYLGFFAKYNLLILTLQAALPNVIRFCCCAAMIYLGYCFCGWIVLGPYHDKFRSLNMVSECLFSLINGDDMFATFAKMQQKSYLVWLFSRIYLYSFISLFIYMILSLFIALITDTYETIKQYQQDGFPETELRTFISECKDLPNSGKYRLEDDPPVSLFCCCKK
Outline: as §1

Chain of TRPML1 (Q9GZU1 whole entry L15A/L16A/L577A/L578A, form open): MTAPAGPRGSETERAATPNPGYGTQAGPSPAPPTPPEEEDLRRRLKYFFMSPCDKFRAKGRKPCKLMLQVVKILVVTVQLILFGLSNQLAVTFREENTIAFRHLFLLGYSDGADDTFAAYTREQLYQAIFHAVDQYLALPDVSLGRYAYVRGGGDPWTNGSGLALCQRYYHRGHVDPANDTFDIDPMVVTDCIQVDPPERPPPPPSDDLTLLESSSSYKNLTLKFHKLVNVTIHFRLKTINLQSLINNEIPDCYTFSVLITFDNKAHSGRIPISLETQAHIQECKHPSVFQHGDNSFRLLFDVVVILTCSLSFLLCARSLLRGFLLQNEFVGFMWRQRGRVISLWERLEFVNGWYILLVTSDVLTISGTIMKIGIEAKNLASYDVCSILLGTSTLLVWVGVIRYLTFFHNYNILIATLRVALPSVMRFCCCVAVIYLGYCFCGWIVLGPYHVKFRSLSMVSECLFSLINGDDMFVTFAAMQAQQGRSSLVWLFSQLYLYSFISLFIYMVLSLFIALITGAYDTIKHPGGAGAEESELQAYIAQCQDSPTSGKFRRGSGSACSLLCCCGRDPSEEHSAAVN

Row | EC50 [1] | EC50 [2] | EC50 [3] | SMILES
1 | 500 to 2000 nM | 500 to 2000 nM | 100 to 500 nM | Cc1nccnc1-c1cn(-c2cc(C#N)ccn2)c2ncnc(N3CCN(C(=O)OC(C)(C)C)C[C@@H]3C)c12 [Compound 319, tert-butyl (S)-4-(7-(4-cyanopyridin-2-yl)-5-(3-methylpyrazin-2-yl)-7H-pyrrolo[2,3-d]pyrimidin-4-yl)-3-methylpiperazine-1-carboxylate]
2 | 500 to 2000 nM | > 2000 nM | 500 to 2000 nM | C[C@H]1CN(C(=O)OC(C)(C)C)CCN1c1ncnc2c1c(-c1cnn(C)c1)cn2-c1cccc(OC(F)(F)F)c1 [Compound 321, tert-butyl (S)-3-methyl-4-(5-(1-methyl-1H-pyrazol-4-yl)-7-(3-(trifluoromethoxy)phenyl)-7H-pyrrolo[2,3-d]pyrimidin-4-yl)piperazine-1-carboxylate]
3 | 100 to 500 nM | 500 to 2000 nM | < 100 nM | C[C@H]1CN(C(=O)OC(C)(C)C)CCN1c1ncnc2c1c(-n1cccn1)cn2-c1cccc(Cl)c1 [Compound 322, tert-butyl (S)-4-(7-(3-chlorophenyl)-5-(1H-pyrazol-1-yl)-7H-pyrrolo[2,3-d]pyrimidin-4-yl)-3-methylpiperazine-1-carboxylate]
4 | 100 to 500 nM | > 2000 nM | < 100 nM | C[C@H]1CN(C(=O)OC(C)(C)C)CCN1c1ncnc2c1c(-n1ccnc1)cn2-c1cccc(Cl)c1 [Compound 323, tert-butyl (S)-4-(7-(3-chlorophenyl)-5-(1H-imidazol-1-yl)-7H-pyrrolo[2,3-d]pyrimidin-4-yl)-3-methylpiperazine-1-carboxylate]
5 | < 100 nM | 500 to 2000 nM | < 100 nM | C[C@H]1CN(C(=O)OC(C)(C)C)CCN1c1ncnc2c1c(N1CCOCC1)cn2-c1cccc(C#N)c1 [Compound 324, tert-butyl (S)-4-(7-(3-cyanophenyl)-5-morpholino-7H-pyrrolo[2,3-d]pyrimidin-4-yl)-3-methylpiperazine-1-carboxylate]
6 | 100 to 500 nM | 100 to 500 nM | < 100 nM | C[C@H]1CN(C(=O)OC(C)(C)C(F)(F)F)CCN1c1ncnc2c1c(C1CC1)cn2C1CCCCC1 [Compound 325, 1,1,1-trifluoro-2-methylpropan-2-yl (S)-4-(7-cyclohexyl-5-cyclopropyl-7H-pyrrolo[2,3-d]pyrimidin-4-yl)-3-methylpiperazine-1-carboxylate]
7 | 100 to 500 nM | > 2000 nM | < 100 nM | C[C@H]1CN(C(=O)OC(C)(C)C)CCN1c1ncnc2c1c(C1CC1)cn2C1CCCCC1 [Compound 326, tert-butyl (S)-4-(7-cyclohexyl-5-cyclopropyl-7H-pyrrolo[2,3-d]pyrimidin-4-yl)-3-methylpiperazine-1-carboxylate]
8 | 100 to 500 nM | 500 to 2000 nM | < 100 nM | C[C@H]1CN(C(=O)OC(C)(C)C)CCN1c1ncnc2c1c(-c1cncnc1)cn2-c1cccc(Cl)c1 [Compound 327, tert-butyl (S)-4-(7-(3-chlorophenyl)-5-(pyrimidin-5-yl)-7H-pyrrolo[2,3-d]pyrimidin-4-yl)-3-methylpiperazine-1-carboxylate]
9 | 500 to 2000 nM | > 2000 nM | 100 to 500 nM | C[C@H]1CN(C(=O)OC(C)(C)C)CCN1c1ncnc2c1c(-c1cncnc1)cn2-c1cccc(C#N)c1 [Compound 328, tert-butyl (S)-4-(7-(3-cyanophenyl)-5-(pyrimidin-5-yl)-7H-pyrrolo[2,3-d]pyrimidin-4-yl)-3-methylpiperazine-1-carboxylate]
10 | 500 to 2000 nM | > 2000 nM | 100 to 500 nM | C[C@H]1CN(C(=O)OC(C)(C)C(F)(F)F)CCN1c1ncnc2c1c(-c1cnn(C)c1)cn2-c1cccc(C#N)c1 [Compound 329, 1,1,1-trifluoro-2-methylpropan-2-yl (S)-4-(7-(3-cyanophenyl)-5-(1-methyl-1H-pyrazol-4-yl)-7H-pyrrolo[2,3-d]pyrimidin-4-yl)-3-methylpiperazine-1-carboxylate]
11 | < 100 nM | 100 to 500 nM | < 100 nM | C[C@H]1CN(C(=O)OC(C)(C)C(F)(F)F)CCN1c1ncnc2c1c(-c1cnn(C)c1)cn2-c1cc(C#N)ccn1 [Compound 330, 1,1,1-trifluoro-2-methylpropan-2-yl (S)-4-(7-(4-cyanopyridin-2-yl)-5-(1-methyl-1H-pyrazol-4-yl)-7H-pyrrolo[2,3-d]pyrimidin-4-yl)-3-methylpiperazine-1-carboxylate]
12 | < 100 nM | < 100 nM | < 100 nM | C[C@H]1CN(C(=O)OC(C)(C)C)CCN1c1ncnc2c1c(N1CCCC1)cn2-c1cccc(OC(F)(F)F)c1 [Compound 331, tert-butyl (S)-3-methyl-4-(5-(pyrrolidin-1-yl)-7-(3-(trifluoromethoxy)phenyl)-7H-pyrrolo[2,3-d]pyrimidin-4-yl)piperazine-1-carboxylate]
13 | < 100 nM | 500 to 2000 nM | < 100 nM | C[C@@H]1CN(c2ncnc3c2c(-n2cccn2)cn3-c2cccc(Cl)c2)CCN1C(=O)OC(C)(C)C [Compound 332, tert-butyl (R)-4-(7-(3-chlorophenyl)-5-(1H-pyrazol-1-yl)-7H-pyrrolo[2,3-d]pyrimidin-4-yl)-2-methylpiperazine-1-carboxylate]
14 | < 100 nM | < 100 nM | < 100 nM | C[C@H]1CN(C(=O)OC(C)(C)C)CCN1c1ncnc2c1c(C1CCC1)cn2-c1cc(C#N)ccn1 [Compound 333]
15 | < 100 nM | 100 to 500 nM | < 100 nM | C[C@H]1CN(C(=O)OC(C)(C)C)CCN1c1ncnc2c1c(N1CCCC1)cn2C1CCCCC1 [Compound 334, tert-butyl (S)-4-(7-cyclohexyl-5-(pyrrolidin-1-yl)-7H-pyrrolo[2,3-d]pyrimidin-4-yl)-3-methylpiperazine-1-carboxylate]
16 | < 100 nM | 500 to 2000 nM | < 100 nM | C[C@H]1CN(C(=O)OC(C)(C)C(F)(F)F)CCN1c1ncnc2c1c(-c1cncnc1)cn2-c1cc(C#N)ccn1 [Compound 335]
17 | 100 to 500 nM | > 2000 nM | < 100 nM | C[C@H]1CN(C(=O)OC(C)(C)C(F)(F)F)CCN1c1ncnc2c1c(-c1cncnc1)cn2-c1cccc(C#N)c1 [Compound 336, 1,1,1-trifluoro-2-methylpropan-2-yl (S)-4-(7-(3-cyanophenyl)-5-(pyrimidin-5-yl)-7H-pyrrolo[2,3-d]pyrimidin-4-yl)-3-methylpiperazine-1-carboxylate]
18 | 500 to 2000 nM | > 2000 nM | 100 to 500 nM | C[C@H]1CN(C(=O)OC(C)(C)C)CCN1c1ncnc2c1c(CN1CCCC1)cn2-c1cccc(Cl)c1 [Compound 337, tert-butyl-(S)-4-(7-(3-chlorophenyl)-5-(pyrrolidin-1-ylmethyl)-7H-pyrrolo[2,3-d]pyrimidin-4-yl)-3-methylpiperazine-1-carboxylate]
19 | 100 to 500 nM | > 2000 nM | 500 to 2000 nM | C[C@H]1CN(C(=O)OC(C)(C)C)CCN1c1ncnc2c1c(N1CCCC1)cn2C1CCCC1 [Compound 338, tert-butyl (S)-4-(7-cyclopentyl-5-(pyrrolidin-1-yl)-7H-pyrrolo[2,3-d]pyrimidin-4-yl)-3-methylpiperazine-1-carboxylate]
